For 39 compounds, EC50 results are on record in patent publication US10221138B2, “Biaryl derivatives as GPR120 agonists” (LG CHEM, LTD., priority 2013, dated 2019).

The term EC50 denotes the concentration needed to bring the measured effect to its halfway point.

Where only a bound is given, the exact number is not on record here.

This experiment deals with T1, hGPR120 (Homo sapiens, UniProt Q5NUL3).
T1 construct: expressed in transfected cells; host or cells: CHO-K1
T1 sequence (Q5NUL3 1-361): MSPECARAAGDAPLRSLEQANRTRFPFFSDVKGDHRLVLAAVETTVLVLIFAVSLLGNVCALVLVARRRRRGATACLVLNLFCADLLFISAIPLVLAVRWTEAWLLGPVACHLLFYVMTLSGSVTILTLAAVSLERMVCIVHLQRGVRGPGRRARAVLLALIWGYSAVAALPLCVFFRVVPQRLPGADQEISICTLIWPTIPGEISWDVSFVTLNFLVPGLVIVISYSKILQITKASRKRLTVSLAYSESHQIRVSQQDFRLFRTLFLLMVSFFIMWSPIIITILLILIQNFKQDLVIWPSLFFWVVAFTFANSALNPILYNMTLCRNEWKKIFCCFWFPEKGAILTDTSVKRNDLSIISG
Put plainly: Measurement of activity of GPR120 agonist (cell-based calcium fluorescence assay). The note with it: CHO-K1 cells expressing Ga16 and hGPR120, Calcium 5 dye fluorescence; activity class; read-out: EC50. The gist of the method:
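CHO-K1 cells co-expressing Gα16 and hGPR120, plated 18 h, loaded with Calcium 5 dye for 1 h at 37 °C, then given serially diluted agonists (final 0.5% DMSO). Fluorescence increase expressed as relative % of the 1% DMSO-only signal.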
As for `Cc1ccc(-c2ccc(SCCCC(=O)O)c(F)c2)c(OC2CCCC2)n1` [Example 189, 4-[4-(2-cyclopentyloxy-6-methyl-pyridin-3-yl)-2-fluoro-phenylsulfanyl]-butyric acid], the concentration giving a half-maximal response (EC50) fell in the range of 200 to 2000 nM.
The value for `Cc1cc(F)c(OC(C)C)c(-c2ccc(SCCCC(=O)O)c(F)c2)c1` [Example 190, 4-(3,3′-difluoro-2′-isopropoxy-5′-methyl-biphenyl-4-ylsulfanyl)-butyric acid] was under 200 nM.
As for `CCCOc1c(F)cc(C)cc1-c1ccc(SCCCC(=O)O)c(F)c1` [Example 191, 4-(3,3′-difluoro-5′-methyl-2′-propoxy-biphenyl-4-ylsulfanyl)-butyric acid], the figure is under 200 nM.
As for `CCCOc1ccc(-c2ccc(SCCCC(=O)O)c(F)c2)c(OCCC)c1` [Example 192, 4-(3-fluoro-2′,4′-dipropoxy-biphenyl-4-ylsulfanyl)-butyric acid], the figure is 2000 to 20000 nM; as for `Cc1ccc(OC2CCCC2)c(-c2ccc(SCCCC(=O)O)c(F)c2)c1F` [Example 193, 4-(6′-cyclopentyloxy-3,2′-difluoro-3′-methyl-biphenyl-4-ylsulfanyl)-butyric acid], 200 to 2000 nM.
Turning to `O=C(O)CCCSc1ccc(-c2cccc(F)c2OC2CCCC2)cc1F` [Example 194, 4-(2′-cyclopentyloxy-3,3′-difluoro-biphenyl-4-ylsulfanyl)-butyric acid], the EC50 was over 20000 nM.
As for `Cc1cc(F)c(OC2CCCC2)c(-c2ccc(SCCCC(=O)O)c(F)c2)c1` [Example 195, 4-(2′-cyclopentyloxy-3,3′-difluoro-5′-methyl-biphenyl-4-ylsulfanyl)-butyric acid], the figure is 200 to 2000 nM; as for `O=C(O)CCCCOc1c(F)cc(-c2cccnc2OCC2CCC2)cc1F` [Example 196, 5-[4-(2-cyclobutylmethoxy-pyridin-3-yl)-2,6-difluoro-phenoxy]-pentanoic acid], under 200 nM; as for `O=C(O)CCCCOc1c(F)cc(-c2cccnc2OC2CC2)cc1F` [Example 197, 5-[4-(2-cyclopropoxy-pyridin-3-yl)-2,6-difluoro-phenoxy]-pentanoic acid], 200 to 2000 nM.
As for `Cc1cnc(OC2CCCC2)c(-c2cc(F)c(SCCCC(=O)O)c(F)c2)c1` [Example 198, 4-[4-(2-cyclopentyloxy-5-methyl-pyridin-3-yl)-2,6-difluoro-phenylsulfanyl]-butyri c acid], the figure is under 200 nM.
As for `CC(CCC(=O)O)Sc1ccc(-c2cccnc2OC2CCCC2)cc1` (stereo not drawn) [Example 199, 4-[4-(2-cyclopentyloxy-pyridin-3-yl)-phenylsulfanyl]-pentanoic acid], the figure is under 200 nM; as for `CC(C)Oc1ncccc1-c1ccc(SC(C)CCC(=O)O)cc1` (stereo not drawn) [Example 200, 4-[4-(2-isopropoxy-pyridin-3-yl)-phenylsulfanyl]-pentanoic acid], 200 to 2000 nM.
`CC(CCC(=O)O)Sc1c(F)cc(-c2cccnc2OC2CCCC2)cc1F` (stereo not drawn) [Example 201, 4-[4-(2-cyclopentyloxy-pyridin-3-yl)-2,6-difluoro-phenylsulfanyl]-pentanoic acid]: the EC50 was under 200 nM.
`CC(CCC(=O)O)Sc1c(F)cc(-c2cccnc2SC2CCCC2)cc1F` (stereo not drawn) [Example 202, 4-[4-(2-cyclopentylsulfanyl-pyridin-3-yl)-2,6-difluoro-phenylsulfanyl]-pentanoic acid]: the EC50 was under 200 nM.
The value for `CN(C)CCOc1ncccc1-c1cc(F)c(OCCCC(=O)O)c(F)c1` [Example 203, 4-[4-[2-(2-dimethylaminoethyloxy)-3-pyridyl]-2,6-difluoro-phenoxy]butanoic acid] was over 20000 nM; that for `CCCSc1ncccc1-c1cc(F)c(OCCCC(=O)O)c(F)c1` [Example 204, 4-[2,6-difluoro-4-(2-propylsulfanyl-pyridin-3-yl)-phenoxy]-butanoic acid] was under 200 nM; that for `O=C(O)CCCOc1c(F)cc(-c2cccnc2SC2CC2)cc1F` [Example 205, 4-[4-(2-cyclopropylsulfanyl-pyridin-3-yl)-2,6-difluoro-phenoxy]-butanoic acid] was 200 to 2000 nM.
`CCSc1ncccc1-c1cc(F)c(OCCCC(=O)O)c(F)c1` [Example 206, 4-[4-(2-ethylsulfanyl-pyridin-3-yl)-2,6-difluoro-phenoxy]-butanoic acid]: the EC50 is under 200 nM.
The value for `CCCCSc1ncccc1-c1cc(F)c(OCCCC(=O)O)c(F)c1` [Example 207, 4-[4-(2-butylsulfanyl-pyridin-3-yl)-2,6-difluoro-phenoxy]-butanoic acid] was under 200 nM.
As for `O=C(O)CCCSc1ccc(-c2ccccc2NC2CCCC2)cc1` [Example 208, 4-(2′-cyclopentylamino-biphenyl-4-ylsulfanyl)-butyric acid], the figure is under 200 nM; as for `Cc1cnc(OC2CCCC2)c(-c2cc(F)c(OCCCC(=O)O)c(F)c2)c1` [Example 209, 4-[4-(2-cyclopentyloxy-5-methyl-pyridin-3-yl)-2,6-difluoro-phenoxy]-butyric acid], under 200 nM.
As for `CC(C)Sc1cccc(-c2ccc(OCCCC(=O)O)cc2)n1` [Example 210, 4-[4-(6-isopropylsulfanyl-2-pyridyl)phenoxy]butanoic acid], the figure is under 200 nM; as for `CN(C)C1CCN(c2cccc(-c3cc(F)c(OCCCC(=O)O)c(F)c3)n2)C1` (stereo not drawn) [Example 212, 4-[4-[6-[3-(dimethylamino)pyrrolidin-1-yl]-2-pyridyl]-2,6-difluoro-phenoxy]butanoic acid], over 20000 nM.
As for `CC(C)Oc1ncccc1-c1cc(F)c(OCCCCC(=O)O)c(F)c1` [Example 213, 5-[2,6-difluoro-4-(2-isopropoxy-pyridin-3-yl)-phenoxy]-pentanoic acid], the EC50 is under 200 nM.
For `O=C(O)CCCCOc1c(F)cc(-c2cccnc2OC2CCC2)cc1F` [Example 214, 5-[4-(2-cyclobutoxy-pyridin-3-yl)-2,6-difluoro-phenoxy]-pentanoic acid], the EC50 was under 200 nM.
As for `O=C(O)CCCOc1c(F)cc(-c2cccnc2N2CCC(F)(F)C2)cc1F` [Example 215, 4-[4-[2-(3,3-difluoropyrrolidin-1-yl)-3-pyridyl]-2,6-difluoro-phenoxy]butanoic acid], the figure is 200 to 2000 nM; as for `CN1CCN(c2ncccc2-c2cc(F)c(OCCCC(=O)O)c(F)c2)CC1` [Example 216, 4-[2,6-difluoro-4-[2-(4-methylpiperazin-1-yl)-3-pyridyl]phenoxy]butanoic acid], over 20000 nM; as for `Cc1cc(Oc2ncccc2-c2cc(F)c(OCCCC(=O)O)c(F)c2)no1` [Example 217, 4-[2,6-difluoro-4-[2-(5-methylisoxazol-3-yl)oxy-3-pyridyl]phenoxy]butanoic acid], 2000 to 20000 nM.
As for `O=C(O)CCCOc1c(F)cc(-c2cccnc2OCCN2CC2)cc1F` [Example 218, 4-[4-[2-[2-(aziridin-1-yl)ethoxy]-3-pyridyl]-2,6-difluoro-phenoxy]butanoic acid], the figure is over 20000 nM; as for `O=C(O)CCCOc1c(F)cc(-c2cccnc2OCc2ccco2)cc1F` [Example 220, 4-[2,6-difluoro-4-[2-(2-furylmethoxy)-3-pyridyl]phenoxy]butanoic acid], 200 to 2000 nM; as for `CC1(COc2ncccc2-c2cc(F)c(OCCCC(=O)O)c(F)c2)COC1` [Example 221, 4-[2,6-difluoro-4-[2-[(3-methyloxetan-3-yl)methoxy]-3-pyridyl]phenoxy]butanoic acid], over 20000 nM.
As for `O=C(O)CCCOc1c(F)cc(-c2cccnc2OCC2CCOC2)cc1F` (stereo not drawn) [Example 222, 4-[2,6-difluoro-4-[2-(tetrahydrofuran-3-ylmethoxy)-3-pyridyl]phenoxy]butanoic acid], the figure is 2000 to 20000 nM.
With `O=C(O)CCCOc1c(F)cc(-c2cccnc2OC2CC2)cc1F` [Example 225, 4-[4-(2-cyclopropoxy-pyridin-3-yl)-2,6-difluoro-phenoxy]-butyric acid], the EC50 is 200 to 2000 nM.
The value for `CC(C)(C)[Si](C)(C)OC1CCC(Oc2ncccc2-c2cc(F)c(OCCCC(=O)O)c(F)c2)C1` (stereo not drawn) [Example 226, 4-(4-{2-[3-(tert-butyl-dimethyl-silanyloxy)-cyclopentyloxy]-pyridin-3-yl}-2,6-difluoro-phenoxy)-butyric acid] was over 20000 nM.
The value for `O=C(O)CCCOc1c(F)cc(-c2cccnc2OC2CCC(O)C2)cc1F` (stereo not drawn) [Example 227, 4-{2,6-difluoro-4-[2-(3-hydroxy-cyclopentyloxy)-pyridin-3-yl]-phenoxy}-butyric acid] was 2000 to 20000 nM.
The value for `O=C(O)CCCOc1c(F)cc(-c2cccnc2OC2CCCCC2)cc1F` [Example 228, 4-[4-(2-cyclohexyloxy-pyridin-3-yl)-2,6-difluoro-phenoxy]-butyric acid] was under 200 nM; that for `O=C(O)CCCOc1c(F)cc(-c2cccnc2OCC2CCCC2)cc1F` [Example 229, 4-[4-(2-cyclopentylmethoxy-pyridin-3-yl)-2,6-difluoro-phenoxy]-butyric acid] was under 200 nM.
Take `CC(C)COc1ncccc1-c1cc(F)c(OCCCC(=O)O)c(F)c1` [Example 230, 4-[2,6-difluoro-4-(2-isobutoxy-pyridin-3-yl)-phenoxy]-butyric acid]: the EC50 was under 200 nM.
The value for `CC(C)(C)COc1ncccc1-c1cc(F)c(OCCCC(=O)O)c(F)c1` [Example 231, 4-{4-[2-(2,2-dimethy-propoxy)-pyridin-3-yl]-2,6-difluoro-phenoxy}-butyric acid] was 200 to 2000 nM.
